Results taken from US6706740B2, “Fungicidal heterocyclic aromatic amides and their compositions, methods of use and preparation” (Dow AgroSciences LLC, priority 1999, dated 2004).

Tests used:
Septoria tritici—SEPTTR = experiment: Leaf Blotch of Wheat, in vivo whole plant, 24 Hour Protectant; conditions: Zymoseptoria tritici, 24 h, 100 ppm spray, 24 hour protectant, wheat; control of fungal infection vs untreated plants; read-out: SEPTTR in vivo 1 Day Protectant
[1] = tested on: Stagonospora nodorum (Leptosphaeria nodorum—LEPTNO); experiment: In vitro fungal growth inhibition, Stagonospora nodorum (LEPTNO); format: cell-based; conditions: Leptosphaeria; 25 ppm in growth medium; read-out: LEPTNO in vitro Growth Inhibition
[2] = tested on: Phytophthora infestans—PHYTIN; experiment: whole plant or invertebrate; format: in vivo; conditions: Phytophthora, in Solanum lycopersicum, 24 h, read-out: PHYTIN in vivo 1 Day Protectant
[3] = tested on: Mycosphaerella graminicola (Septoria tritici—SEPTTR); experiment: In vitro fungal growth inhibition, Mycosphaerella graminicola (SEPTTR); format: cell-based; conditions: Zymoseptoria tritici; 25 ppm in growth medium; read-out: SEPTTR in vitro Growth Inhibition
[4] = tested on: Rhizoctonia solani (RHIZSO); experiment: microbe, parasite or virus in culture; format: cell-based; conditions: Rhizoctonia solani, read-out: RHIZSO in vitro Growth Inhibition
[5] = tested on: Magnaporthe grisea (Pyricularia oryzae—PYRIOR); experiment: microbe, parasite or virus in culture; format: cell-based; conditions: Pyricularia oryzae, read-out: PYRIOR in vitro Growth Inhibition
[6] = tested on: Phytophthora infestans (PHYTIN); experiment: microbe, parasite or virus in culture; format: cell-based; conditions: Phytophthora infestans, read-out: PHYTIN in vitro Growth Inhibition
Ustilago maydis (USTIMA) = experiment: microbe, parasite or virus in culture; format: cell-based; conditions: Mycosarcoma maydis, read-out: USTIMA in vitro Growth Inhibition
[7] = tested on: Puccinia recondita—PUCCRT; experiment: Brown Rust of Wheat, in vivo whole plant, 24 Hour Protectant; conditions: Puccinia; 100 ppm spray, 24 hour protectant, wheat; control of fungal infection vs untreated plants; read-out: PUCCRT in vivo 1 Day Protectant
Erysiphe graminis—ERYSGT = experiment: Powdery Mildew of Wheat, in vivo whole plant, 24 Hour Protectant; conditions: Erysiphe; 100 ppm spray, 24 hour protectant, wheat; control of fungal infection vs untreated plants; read-out: ERYSGT in vivo 1 Day Protectant
[8] = tested on: Leptosphaeria nodorum—LEPTNO; experiment: Glume Blotch of Wheat, in vivo whole plant, 24 Hour Protectant; conditions: 100 ppm spray, 24 hour protectant, wheat, control of fungal infection vs untreated plants; for pest or weed control at 100 ppm: Leptosphaeria, read-out: LEPTNO in vivo 1 Day Protectant

SMILES | pest or weed control at 100 ppm (Septoria tritici—SEPTTR) [%] | inhibition at 25 ppm [1] [%] | pest or weed control at 100 ppm [2] [%] | melting point | inhibition at 25 ppm [3] [%] | inhibition at 25 ppm [4] [%] | inhibition at 25 ppm [5] [%] | inhibition at 25 ppm [6] [%] | inhibition at 25 ppm (Ustilago maydis (USTIMA)) [%] | pest or weed control at 100 ppm [7] [%] | pest or weed control at 100 ppm (Erysiphe graminis—ERYSGT) [%] | pest or weed control at 100 ppm [8] [%] | LEPTNO in vivo 1 Day Protectant [8]
COc1ccnc(C(=O)NC2CC(C)(C)CC(C)(C(=O)c3ccccc3)C2)c1O (stereo not drawn) [Compound 260] | 25 to 74 | > 80 | < 25 | 147 to 149 °C | < 80 | < 80 | < 80 | < 80 | < 80 | < 25 | < 25 | 25 to 74 | –
COc1ccnc(C(=O)N[C@@H]2CC(C)(C)C[C@](C)(C(=O)N(C)CCc3ccccc3)C2)c1O [Compound 262] | 25 to 74 | < 80 | < 25 | 59 to 60 °C | < 80 | < 80 | < 80 | < 80 | < 80 | < 25 | < 25 | 25 to 74 | –
COc1ccnc(C(=O)NC2CC(C)(C)C(OC(=O)c3ccccc3)C(C)(C)C2)c1O (stereo not drawn) [Compound 268] | 25 to 74 | > 80 | < 25 | 175 to 200 °C | < 80 | < 80 | < 80 | > 80 | < 80 | 25 to 74 | < 25 | 25 to 74 | –
COc1ccnc(C(=O)NC2CC(C)(C)C(OC(=O)c3cccc(Cl)n3)C(C)(C)C2)c1O (stereo not drawn) [Compound 269] | 25 to 74 | < 80 | < 25 | 55 to 65 °C | < 80 | < 80 | < 80 | < 80 | < 80 | 25 to 74 | < 25 | < 25 | –
COc1ccnc(C(=O)N[C@H]2CC[C@H](Oc3ccc(C(F)(F)F)cc3)CC2)c1O [Compound 270] | 25 to 74 | > 80 | 25 to 74 | 168 to 172 °C (dec.) | > 80 | > 80 | > 80 | < 80 | > 80 | 25 to 74 | 25 to 74 | – | + +
COc1ccnc(C(=O)N[C@H]2CC[C@@H](Oc3ccc(C(F)(F)F)cc3)CC2)c1O [Compound 271] | 25 to 74 | > 80 | 25 to 74 | 181 to 183 °C (dec.) | > 80 | > 80 | > 80 | > 80 | > 80 | < 25 | < 25 | 25 to 74 | –
COc1ccnc(C(=O)N[C@@H]2CCCC[C@H]2SC)c1O [Compound 273] | 25 to 74 | < 80 | < 25 | 113 to 115 °C | < 80 | < 80 | < 80 | < 80 | < 80 | < 25 | < 25 | 25 to 74 | –
COc1ccnc(C(=O)NC2c3ccccc3CC2(C)C)c1O (stereo not drawn) [Compound 284] | 25 to 74 | < 80 | < 25 | 122 to 128 °C | < 80 | < 80 | < 80 | < 80 | < 80 | 25 to 74 | < 25 | 25 to 74 | –
